Test results from ChEMBL document CHEMBL5523676, “Design, synthesis, and anti-cancer evaluation of C-14 arylcarbamate derivatives of andrographolide” (Bioorg Med Chem, 2024).
pIC50: −log10 of the molar value. One block for each molecule: values may come before it. Active and inactive are the calls of the source. The rule behind the calls is not given here.

How the values were obtained:
PANC-1 [1] = experiment: Inhibition of p53 R273H protein level in human PANC-1 cells at 15 uM measured after 24 hrs by Western blot analysis; format: functional, cell-based
PANC-1 [2] = experiment: Antiproliferative activity against human PANC-1 cells assessed as inhibition of cell growth measured after 48 hrs by MTT assay; format: functional, cell-based; conditions: PANC-1, 48 h
MIA PaCa-2 [3] = experiment: Antiproliferative activity against human MIA PaCa-2 cells assessed as inhibition of cell growth measured after 48 hrs by MTT assay; format: functional, cell-based; conditions: MIA PaCa-2, 48 h
MIA PaCa-2 [4] = experiment: Antiproliferative activity against human MIA PaCa-2 cells assessed as suppression of cell growth at 30 uM measured after 48 hrs by MTT assay; format: functional, cell-based
PANC-1 [5] = experiment: Inhibition of colony formation in human PANC-1 cells assessed as decrease in colony numbers measured after 24 hrs by crystal violet staining based analysis; format: functional, cell-based; conditions: dose 1-30 µM
PANC-1 [6] = experiment: Inhibition of cell migration in human PANC-1 cells at 10 uM incubated for 12 hrs by crystal violet staining based microscopic analysis; format: functional
PANC-1 [7] = experiment: Antiproliferative activity against human PANC-1 cells assessed as inhibition of cell growth at upto 20 uM measured after 12 hrs by MTT assay; format: functional, cell-based
PANC-1 [8] = experiment: Inhibition of p53 R273H mutant protein level in human PANC-1 cells at 10 uM measured after 24 hrs by Western blot analysis; format: functional, cell-based
MIA PaCa-2 [9] = experiment: Inhibition of p53 […] mutant protein level in human MIA PaCa-2 cells at 20 uM measured after 24 hrs by Western blot analysis; format: functional, cell-based
MIA PaCa-2 [10] = experiment: Inhibition of colony formation in human MIA PaCa-2 cells at 1 to 30 uM measured after 24 hrs by crystal violet staining based analysis; format: functional, cell-based; conditions: dose 1-30 µM
[11] = Antiproliferative activity against human IMR-90 cells assessed as inhibition of cell growth measured after 48 hrs by MTT assay; format: toxicity, cell-based
MIA PaCa-2 [12] = experiment: Inhibition of cell migration in human MIA PaCa-2 cells at 10 uM incubated for 24 hrs by crystal violet staining based microscopic analysis; format: functional
[13] = Antiproliferative activity against human HEK293 cells assessed as inhibition of cell growth measured after 48 hrs by MTT assay; format: toxicity, cell-based
[14] = Antiproliferative activity against human HPDE cells assessed as inhibition of cell growth measured after 48 hrs by MTT assay; format: toxicity, cell-based

SMILES: C=C1CC[C@@H]2[C@]3(C)COC(C)(C)O[C@@H]3CC[C@@]2(C)[C@@H]1C/C=C1/C(=O)OC[C@H]1OC(=O)Nc1cccc(C#N)c1
inhibition (PANC-1 [1]): Active | pIC50 (PANC-1 [2]): 4.82

SMILES: C=C1CC[C@@H]2[C@]3(C)COC(C)(C)O[C@@H]3CC[C@@]2(C)[C@@H]1C/C=C1/C(=O)OC[C@H]1OC(=O)Nc1ccc(Cl)cc1
pIC50 (PANC-1 [2]): 4.54

SMILES: C=C1CC[C@@H]2[C@]3(C)COC(C)(C)O[C@@H]3CC[C@@]2(C)[C@@H]1C/C=C1/C(=O)OC[C@H]1OC(=O)Nc1cc(C)cc(C)c1
pIC50 (PANC-1 [2]): < 4.52

SMILES: C=C1CC[C@@H]2[C@]3(C)COC(C)(C)O[C@@H]3CC[C@@]2(C)[C@@H]1C/C=C1/C(=O)OC[C@H]1OC(=O)Nc1ccc(NC(C)=O)cc1
pIC50 (PANC-1 [2]): < 4.52

SMILES: C=C1CC[C@@H]2[C@](C)(CO)[C@H](O)CC[C@@]2(C)[C@@H]1C/C=C1/C(=O)OC[C@H]1O [ANDROGRAPHOLIDE]
Activity (MIA PaCa-2 [4]): Active | inhibition (PANC-1 [5]): Dose-Dependent Effect | inhibition (PANC-1 [6]): Active | pIC50 (MIA PaCa-2 [3]): 4.68 | pIC50 (PANC-1 [2]): 4.69 | Activity (PANC-1 [7]): inactive

SMILES: C=C1CC[C@@H]2[C@]3(C)COC(C)(C)O[C@@H]3CC[C@@]2(C)[C@@H]1C/C=C1/C(=O)OC[C@H]1OC(=O)Nc1ccc(F)cc1F
Activity (MIA PaCa-2 [4]): Active | pIC50 (PANC-1 [2]): < 4.52

SMILES: C=C1CC[C@@H]2[C@]3(C)COC(C)(C)O[C@@H]3CC[C@@]2(C)[C@@H]1C/C=C1/C(=O)OC[C@H]1OC(=O)Nc1cccc(Br)c1
pIC50 (PANC-1 [2]): 4.80

SMILES: C=C1CC[C@@H]2[C@]3(C)COC(C)(C)O[C@@H]3CC[C@@]2(C)[C@@H]1C/C=C1/C(=O)OC[C@H]1OC(=O)Nc1cccc(C(F)(F)F)c1
pIC50 (PANC-1 [2]): < 4.52

Now from value to molecule, other results behind:

pIC50 (MIA PaCa-2 [3]): < 4.52 | pIC50 (PANC-1 [2]): 4.82
SMILES: C=C1CC[C@@H]2[C@]3(C)COC(C)(C)O[C@@H]3CC[C@@]2(C)[C@@H]1C/C=C1/C(=O)OC[C@H]1OC(=O)Nc1cc(F)ccc1F
inhibition (PANC-1 [1]): Active

pIC50 (MIA PaCa-2 [3]): < 4.52 | pIC50 (PANC-1 [2]): 4.96
SMILES: C=C1CC[C@@H]2[C@]3(C)COC(C)(C)O[C@@H]3CC[C@@]2(C)[C@@H]1C/C=C1/C(=O)OC[C@H]1OC(=O)Nc1cccc(C(C)=O)c1
inhibition (PANC-1 [8]): Active | inhibition (MIA PaCa-2 [9]): Active

pIC50 (MIA PaCa-2 [3]): 4.59 | pIC50 (PANC-1 [2]): 5.02
SMILES: C=C1CC[C@@H]2[C@]3(C)COC(C)(C)O[C@@H]3CC[C@@]2(C)[C@@H]1C/C=C1/C(=O)OC[C@H]1OC(=O)Nc1ccccc1
inhibition (MIA PaCa-2 [10]): Active | IC50 at 48 h [11]: > 30 µM | inhibition (PANC-1 [8]): Active | Activity (MIA PaCa-2 [4]): Active | inhibition (PANC-1 [5]): Dose-Dependent Effect | inhibition (PANC-1 [6]): Active | inhibition (MIA PaCa-2 [12]): Active | IC50 at 48 h [13]: > 30 µM | Activity (PANC-1 [7]): inactive | IC50 at 48 h [14]: > 30 µM | inhibition (MIA PaCa-2 [9]): Active

pIC50 (PANC-1 [2]): 4.87
SMILES: C=C1CC[C@@H]2[C@]3(C)COC(C)(C)O[C@@H]3CC[C@@]2(C)[C@@H]1C/C=C1/C(=O)OC[C@H]1OC(=O)Nc1ccc([N+](=O)[O-])cc1

pIC50 (MIA PaCa-2 [3]): < 4.52 | pIC50 (PANC-1 [2]): 4.99
SMILES: C=C1CC[C@@H]2[C@]3(C)COC(C)(C)O[C@@H]3CC[C@@]2(C)[C@@H]1C/C=C1/C(=O)OC[C@H]1OC(=O)Nc1ccc(Br)cc1

pIC50 (PANC-1 [2]): 4.97
SMILES: C=C1CC[C@@H]2[C@]3(C)COC(C)(C)O[C@@H]3CC[C@@]2(C)[C@@H]1C/C=C1/C(=O)OC[C@H]1OC(=O)Nc1cccc(OC)c1
